Here are results for 2 compounds from article PMC3156385 (Chemical research in toxicology, 2011).

Data set [1] has as its target T1, P450 2A13 (Homo sapiens, UniProt Q16696).
T1 sequence (Q16696 1-494): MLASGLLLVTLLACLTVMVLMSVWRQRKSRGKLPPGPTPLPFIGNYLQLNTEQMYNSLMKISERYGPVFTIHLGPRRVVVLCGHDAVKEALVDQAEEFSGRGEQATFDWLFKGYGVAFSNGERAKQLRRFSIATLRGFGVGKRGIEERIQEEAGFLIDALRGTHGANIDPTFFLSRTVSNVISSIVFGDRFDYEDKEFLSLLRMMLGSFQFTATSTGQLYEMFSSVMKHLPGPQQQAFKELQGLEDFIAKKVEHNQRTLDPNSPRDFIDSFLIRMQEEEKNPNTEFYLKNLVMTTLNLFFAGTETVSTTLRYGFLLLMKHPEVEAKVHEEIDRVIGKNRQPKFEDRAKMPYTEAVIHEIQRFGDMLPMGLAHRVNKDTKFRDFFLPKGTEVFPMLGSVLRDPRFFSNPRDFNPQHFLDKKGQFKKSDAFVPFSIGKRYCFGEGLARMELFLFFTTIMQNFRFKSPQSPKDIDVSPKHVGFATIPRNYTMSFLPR
Put plainly: Spectral binding titration with purified recombinant P450 2A13. The following applies: for ΔAmax/Ks / ΔAmax: Type I binding; for ΔAmax: means ± SE.

Data set [2] deals with P450 2A13. Described as above. The following applies: Ks P450 2A6 / Ks P450 2A13.
Data set [3] has as its target T2, P450 2A6 (Homo sapiens, UniProt P11509).
T2 sequence (P11509 1-494): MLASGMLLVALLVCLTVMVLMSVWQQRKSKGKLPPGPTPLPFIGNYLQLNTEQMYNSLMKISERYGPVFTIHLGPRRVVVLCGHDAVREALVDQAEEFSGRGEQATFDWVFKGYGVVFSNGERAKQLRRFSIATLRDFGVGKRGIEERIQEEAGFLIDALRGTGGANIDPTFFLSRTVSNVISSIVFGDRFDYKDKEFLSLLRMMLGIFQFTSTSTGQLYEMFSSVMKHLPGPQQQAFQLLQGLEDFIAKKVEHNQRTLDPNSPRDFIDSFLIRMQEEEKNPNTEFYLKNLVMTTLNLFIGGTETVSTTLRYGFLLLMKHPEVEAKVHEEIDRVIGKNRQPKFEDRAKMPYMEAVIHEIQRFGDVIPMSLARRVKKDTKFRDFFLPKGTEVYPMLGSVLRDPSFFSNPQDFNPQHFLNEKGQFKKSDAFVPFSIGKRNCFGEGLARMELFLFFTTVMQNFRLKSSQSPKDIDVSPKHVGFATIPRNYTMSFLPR
The data set can be described thus: Inhibition of P450 2A6-dependent coumarin 7-hydroxylation. Format: biochemical.

Data set [4] deals with T2, P450 2A6. Format: biochemical.
Data set [5] concerns the target T3, rat liver P450 1A2 (Rattus norvegicus, UniProt P04799).
T3 sequence (P04799 1-513): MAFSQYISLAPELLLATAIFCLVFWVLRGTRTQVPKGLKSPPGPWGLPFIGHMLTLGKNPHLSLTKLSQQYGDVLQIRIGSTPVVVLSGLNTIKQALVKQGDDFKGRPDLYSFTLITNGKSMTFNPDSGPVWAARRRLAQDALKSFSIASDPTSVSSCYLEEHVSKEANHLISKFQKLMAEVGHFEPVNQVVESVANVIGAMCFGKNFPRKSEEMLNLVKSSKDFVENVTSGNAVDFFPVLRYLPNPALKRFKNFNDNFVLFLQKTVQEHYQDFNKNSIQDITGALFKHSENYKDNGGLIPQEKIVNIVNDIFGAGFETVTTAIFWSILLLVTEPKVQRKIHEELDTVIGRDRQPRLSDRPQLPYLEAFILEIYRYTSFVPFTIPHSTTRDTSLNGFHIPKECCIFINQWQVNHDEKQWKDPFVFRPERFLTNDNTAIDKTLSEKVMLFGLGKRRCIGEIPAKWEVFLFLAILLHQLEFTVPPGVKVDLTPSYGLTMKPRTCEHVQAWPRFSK
Format: binding.

Data set [6] deals with T4, rabbit liver P450 1A2 (Oryctolagus cuniculus, UniProt P00187).
T4 sequence (P00187 1-516): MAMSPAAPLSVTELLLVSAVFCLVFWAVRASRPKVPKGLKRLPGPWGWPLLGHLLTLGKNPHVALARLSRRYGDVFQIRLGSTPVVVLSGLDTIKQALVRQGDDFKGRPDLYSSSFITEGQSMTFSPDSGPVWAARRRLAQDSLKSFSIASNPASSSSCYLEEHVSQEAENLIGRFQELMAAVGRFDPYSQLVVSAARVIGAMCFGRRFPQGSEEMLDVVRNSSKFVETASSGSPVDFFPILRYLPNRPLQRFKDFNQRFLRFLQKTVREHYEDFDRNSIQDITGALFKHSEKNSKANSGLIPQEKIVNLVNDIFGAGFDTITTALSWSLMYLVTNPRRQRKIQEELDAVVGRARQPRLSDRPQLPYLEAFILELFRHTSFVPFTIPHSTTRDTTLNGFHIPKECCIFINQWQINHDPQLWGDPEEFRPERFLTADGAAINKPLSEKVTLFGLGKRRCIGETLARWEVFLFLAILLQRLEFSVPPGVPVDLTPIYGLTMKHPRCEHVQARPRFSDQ
Format: binding.

In data set [7] the target is T5, P450 1A1 (Homo sapiens, UniProt P04798).
T5 sequence (P04798 1-512): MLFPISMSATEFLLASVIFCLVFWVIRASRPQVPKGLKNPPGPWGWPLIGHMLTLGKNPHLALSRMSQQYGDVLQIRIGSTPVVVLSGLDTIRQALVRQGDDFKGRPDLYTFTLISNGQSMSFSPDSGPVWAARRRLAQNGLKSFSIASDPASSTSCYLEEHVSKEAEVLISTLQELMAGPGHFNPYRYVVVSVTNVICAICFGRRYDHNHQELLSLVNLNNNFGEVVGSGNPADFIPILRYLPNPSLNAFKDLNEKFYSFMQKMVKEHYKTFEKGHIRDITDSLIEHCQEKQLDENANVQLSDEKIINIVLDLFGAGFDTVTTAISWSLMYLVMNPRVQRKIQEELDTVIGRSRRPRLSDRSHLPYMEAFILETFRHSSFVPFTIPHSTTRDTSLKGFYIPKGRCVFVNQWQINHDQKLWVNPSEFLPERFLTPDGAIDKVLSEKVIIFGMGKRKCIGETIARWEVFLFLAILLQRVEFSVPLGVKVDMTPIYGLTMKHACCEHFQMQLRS
Put plainly: Inhibition of P450 1A1-dependent EROD activity. Format: biochemical.

Like-named read-outs stand apart in the source and are kept apart here.

A word on the Kd: it is the equilibrium constant for the complex coming apart. For orientation: IC50 means the midpoint of a concentration-inhibition curve. High values mean weaker potency, low ones greater potency.

`N#C[Se]Cc1cccc(C[Se]C#N)c1` [m-XSC, 1,3-phenylenebis(methylene)selenocyanate]: in data set [1], the Kd worked out at 0.2 ± 0.015 µM. Further, the ΔAmax/Ks is 395.00 × 10^−3 in data set [1] (1 µM P450) and 0.40 in data set [1] (as printed in text without ×10^−3). Besides, the ΔAmax in data set [1] (1 µM P450) was 79 ± 0.91 × 10^−3. The “Ks of P450 2A13 lower than with P450 2A6” value in data set [2] is reported as 28 fold. In data set [3], this compound showed an IC50 of 2.4 ± 0.19 µM. Moreover, the “effect of preincubation on inhibition potency of coumarin 7-hydroxylation” value in data set [4] (preincubation 15 min with NADPH vs without) is given as “did not change the inhibition potencies”. The “coumarin 7-hydroxylation, % of control” value is 48 % of control in data set [4] (with preincubation 15 min with NADPH, 1.0 µM coumarin, BSC 4.3 µM, m-XSC 0.68 µM) and 48 % of control in data set [4] (without preincubation, 1.0 µM coumarin, BSC 4.3 µM, m-XSC 0.68 µM). Also, the “coumarin 7-hydroxylation” value in data set [4] (without preincubation, 1.0 µM coumarin, BSC 4.3 µM, m-XSC 0.68 µM, control 3.26) was determined as 1.56 nmol/min/nmol P450.

As to `N#C[Se]Cc1ccccc1` [BSC, benzyl selenocyanate], the Kd in data set [5] was determined as 16 ± 2.4 µM; in data set [6], 90 ± 29 µM; in data set [1], 0.2 ± 0.021 µM. Also, the ΔAmax/Ks in data set [1] (1 µM P450) is 470.00 × 10^−3. The ΔAmax in data set [1] (1 µM P450) is 94 ± 1.5 × 10^−3. Also, the “type of binding spectra” value in data set [1] (difference spectra) is reported as “Type I”. Besides, the “Ks of P450 2A13 lower than with P450 2A6” value in data set [2] stood at 10 fold. Moreover, the IC50 in data set [3] worked out at 4.3 ± 0.36 µM; in data set [7] it was 0.45 ± 0.038 µM. Further, the “effect of preincubation on inhibition potency of coumarin 7-hydroxylation” value in data set [4] was “did not change the inhibition potencies”.
